Assay results: patent US11382328B2, “Rapid drug discovery methods for pathogen inactivation” (priority 2019, dated 2022)

System: E. coli strain W3110
Assay: Synergy assays: Biolog chemical sensitivity panels with Group IB metal, coefficient of drug interaction (CDI) from relative growth
Format: cell-based
Details: for CDI (coefficient of drug interaction), gold + biocide: Gold (μM); for CDI (coefficient of drug interaction), copper mixed with biocide: Copper (mM) section
[1] = Copper (mM), 1st of 3 copper concentrations (head line not shown), biocide concentration 1 of 4, E. coli
[2] = Copper (mM), 1st of 3 copper concentrations (head line not shown), biocide concentration 2 of 4, E. coli
[3] = Copper (mM), 1st of 3 copper concentrations (head line not shown), biocide concentration 3 of 4, E. coli
[4] = Copper (mM), 1st of 3 copper concentrations (head line not shown), biocide concentration 4 of 4, E. coli
[5] = Copper (mM), 2nd of 3 copper concentrations (head line not shown), biocide concentration 1 of 4, E. coli
[6] = Copper (mM), 2nd of 3 copper concentrations (head line not shown), biocide concentration 2 of 4, E. coli
[7] = Copper (mM), 2nd of 3 copper concentrations (head line not shown), biocide concentration 3 of 4, E. coli
[8] = Copper (mM), 2nd of 3 copper concentrations (head line not shown), biocide concentration 4 of 4, E. coli
[9] = Copper (mM), 3rd of 3 copper concentrations (head line not shown), biocide concentration 1 of 4, E. coli
[10] = Copper (mM), 3rd of 3 copper concentrations (head line not shown), biocide concentration 2 of 4, E. coli
[11] = Copper (mM), 3rd of 3 copper concentrations (head line not shown), biocide concentration 3 of 4, E. coli
[12] = Copper (mM), 3rd of 3 copper concentrations (head line not shown), biocide concentration 4 of 4, E. coli
[13] = first of 3 gold concentrations, biocide concentration 2 of 4
[14] = first of 3 gold concentrations, biocide concentration 3 of 4
[15] = first of 3 gold concentrations, biocide concentration 4 of 4
[16] = second of 3 gold concentrations, biocide concentration 1 of 4
[17] = second of 3 gold concentrations, biocide concentration 2 of 4
[18] = second of 3 gold concentrations, biocide concentration 3 of 4
[19] = second of 3 gold concentrations, biocide concentration 4 of 4
[20] = third of 3 gold concentrations, biocide concentration 1 of 4
[21] = third of 3 gold concentrations, biocide concentration 2 of 4
[22] = third of 3 gold concentrations, biocide concentration 3 of 4
[23] = third of 3 gold concentrations, biocide concentration 4 of 4
[24] = Silver 0.5 μM, biocide concentration 1 of 4
[25] = Silver 0.5 μM, biocide concentration 2 of 4
[26] = Silver 0.5 μM, biocide concentration 3 of 4
[27] = Silver 0.5 μM, biocide concentration 4 of 4
[28] = Silver 1.0 μM, biocide concentration 2 of 4
[29] = Silver 1.0 μM, biocide concentration 3 of 4
[30] = Silver 1.0 μM, biocide concentration 4 of 4
[31] = Silver 5.0 μM, biocide concentration 1 of 4
[32] = Silver 5.0 μM, biocide concentration 2 of 4
[33] = Silver 5.0 μM, biocide concentration 3 of 4
[34] = Silver 5.0 μM, biocide concentration 4 of 4
[35] = Gold section of Table 5, first of three gold concentrations (μM, value not given), biocide concentration 2 of 4
[36] = Gold section of Table 5, first of three gold concentrations (μM, value not given), biocide concentration 3 of 4
[37] = Gold section of Table 5, first of three gold concentrations (μM, value not given), biocide concentration 4 of 4
[38] = Gold section of Table 5, second of three gold concentrations (μM, value not given), biocide concentration 2 of 4
[39] = Gold section of Table 5, second of three gold concentrations (μM, value not given), biocide concentration 3 of 4
[40] = Gold section of Table 5, second of three gold concentrations (μM, value not given), biocide concentration 4 of 4
[41] = Gold section of Table 5, third of three gold concentrations (μM, value not given), biocide concentration 2 of 4
[42] = Gold section of Table 5, third of three gold concentrations (μM, value not given), biocide concentration 3 of 4
[43] = Gold section of Table 5, third of three gold concentrations (μM, value not given), biocide concentration 4 of 4
[44] = Silver 1.0 μM, biocide concentration 1 of 4

Compound: NC(CCC(=O)NO)C(=O)O [L-glutamic-γ-hydroxamate]
- CDI (coefficient of drug interaction) [1]: 1.14
- CDI (coefficient of drug interaction) [2]: 1.16
- CDI (coefficient of drug interaction) [3]: 0.97
- CDI (coefficient of drug interaction) [4]: 1.01
- CDI (coefficient of drug interaction) [5]: 0.87
- CDI (coefficient of drug interaction) [6]: 0.90
- CDI (coefficient of drug interaction) [7]: 0.92
- CDI (coefficient of drug interaction) [8]: 0.96
- CDI (coefficient of drug interaction) [9]: 0.75
- CDI (coefficient of drug interaction) [10]: 0.80
- CDI (coefficient of drug interaction) [11]: 0.69
- CDI (coefficient of drug interaction) [12]: 0.74
- CDI (coefficient of drug interaction), gold + biocide (first of 3 gold concentrations, biocide concentration 1 of 4): 1.03
- CDI (coefficient of drug interaction), gold + biocide [13]: 1.03
- CDI (coefficient of drug interaction), gold + biocide [14]: 1.08
- CDI (coefficient of drug interaction), gold + biocide [15]: 1.08
- CDI (coefficient of drug interaction), gold + biocide [16]: 1.02
- CDI (coefficient of drug interaction), gold + biocide [17]: 1.01
- CDI (coefficient of drug interaction), gold + biocide [18]: 1.09
- CDI (coefficient of drug interaction), gold + biocide [19]: 1.04
- CDI (coefficient of drug interaction), gold + biocide [20]: 1.01
- CDI (coefficient of drug interaction), gold + biocide [21]: 1.01
- CDI (coefficient of drug interaction), gold + biocide [22]: 1.02
- CDI (coefficient of drug interaction), gold + biocide [23]: 1.01
- CDI [24]: 0.93
- CDI [25]: 0.75
- CDI [26]: 0.61
- CDI [27]: 0.49
- CDI [28]: 0.97
- CDI [29]: 0.93
- CDI [30]: 0.71
- CDI [31]: 1.00
- CDI [32]: 0.85
- CDI [33]: 0.71
- CDI [34]: 0.34

Compound: O=C1CN(/N=C/c2ccc([N+](=O)[O-])o2)C(=O)N1 [nitrofurantoin]
- CDI (coefficient of drug interaction) (Gold 50 μM, biocide concentration 4 of 4, E. coli): Tox

Compound: O=C1C=C2C(=CCOC2O)O1 (centres unmarked) [patulin]
- CDI (coefficient of drug interaction), copper mixed with biocide (1st of 3 copper concentrations (value not shown), 1st of four biocide concentrations): Tox
- CDI (coefficient of drug interaction), copper mixed with biocide (1st of 3 copper concentrations (value not shown), 2nd of four biocide concentrations): Tox
- CDI (coefficient of drug interaction), copper mixed with biocide (1st of 3 copper concentrations (value not shown), 3rd of four biocide concentrations): Tox
- CDI (coefficient of drug interaction), copper mixed with biocide (1st of 3 copper concentrations (value not shown), 4th of four biocide concentrations): Tox
- CDI (coefficient of drug interaction), copper mixed with biocide (2nd of 3 copper concentrations (value not shown), 1st of four biocide concentrations): Tox
- CDI (coefficient of drug interaction), copper mixed with biocide (2nd of 3 copper concentrations (value not shown), 2nd of four biocide concentrations): Tox
- CDI (coefficient of drug interaction), copper mixed with biocide (2nd of 3 copper concentrations (value not shown), 3rd of four biocide concentrations): Tox
- CDI (coefficient of drug interaction), copper mixed with biocide (2nd of 3 copper concentrations (value not shown), 4th of four biocide concentrations): Tox
- CDI (coefficient of drug interaction), copper mixed with biocide (3rd of 3 copper concentrations (value not shown), 1st of four biocide concentrations): Tox
- CDI (coefficient of drug interaction), copper mixed with biocide (3rd of 3 copper concentrations (value not shown), 2nd of four biocide concentrations): Tox
- CDI (coefficient of drug interaction), copper mixed with biocide (3rd of 3 copper concentrations (value not shown), 3rd of four biocide concentrations): Tox
- CDI (coefficient of drug interaction), copper mixed with biocide (3rd of 3 copper concentrations (value not shown), 4th of four biocide concentrations): Tox
- CDI (coefficient of drug interaction) [35]: Tox
- CDI (coefficient of drug interaction) [36]: Tox
- CDI (coefficient of drug interaction) [37]: Tox
- CDI (coefficient of drug interaction) [38]: Tox
- CDI (coefficient of drug interaction) [39]: Tox
- CDI (coefficient of drug interaction) [40]: Tox
- CDI (coefficient of drug interaction) [41]: Tox
- CDI (coefficient of drug interaction) [42]: Tox
- CDI (coefficient of drug interaction) [43]: Tox
- CDI (coefficient of drug interaction), silver + biocide (Silver 0.5 μM, 2nd of four biocide concentrations, E. coli): Tox
- CDI (coefficient of drug interaction), silver + biocide (Silver 0.5 μM, 3rd of four biocide concentrations, E. coli): Tox
- CDI (coefficient of drug interaction), silver + biocide (Silver 0.5 μM, 4th of four biocide concentrations, E. coli): Tox
- CDI (coefficient of drug interaction), silver + biocide (Silver 1.0 μM, 2nd of four biocide concentrations, E. coli): Tox
- CDI (coefficient of drug interaction), silver + biocide (Silver 1.0 μM, 3rd of four biocide concentrations, E. coli): Tox
- CDI (coefficient of drug interaction), silver + biocide (Silver 1.0 μM, 4th of four biocide concentrations, E. coli): Tox
- CDI (coefficient of drug interaction), silver + biocide (Silver 5.0 μM, 2nd of four biocide concentrations, E. coli): Tox
- CDI (coefficient of drug interaction), silver + biocide (Silver 5.0 μM, 3rd of four biocide concentrations, E. coli): Tox
- CDI (coefficient of drug interaction), silver + biocide (Silver 5.0 μM, 4th of four biocide concentrations, E. coli): Tox

Compound: O=C(O)/C=C/c1ccccc1 [Cimamic acid]
- CDI (coefficient of drug interaction) [1]: 0.85
- CDI (coefficient of drug interaction) [2]: 0.74
- CDI (coefficient of drug interaction) [3]: 0.87
- CDI (coefficient of drug interaction) [4]: Tox
- CDI (coefficient of drug interaction) [5]: 0.70
- CDI (coefficient of drug interaction) [6]: 0.79
- CDI (coefficient of drug interaction) [7]: 1.11
- CDI (coefficient of drug interaction) [8]: Tox
- CDI (coefficient of drug interaction) [9]: 0.53
- CDI (coefficient of drug interaction) [10]: 0.54
- CDI (coefficient of drug interaction) [11]: 1.11
- CDI (coefficient of drug interaction) [12]: Tox
- CDI (coefficient of drug interaction), gold + biocide [13]: 1.09
- CDI (coefficient of drug interaction), gold + biocide [14]: 1.19
- CDI (coefficient of drug interaction), gold + biocide [15]: Tox
- CDI (coefficient of drug interaction), gold + biocide [16]: 0.99
- CDI (coefficient of drug interaction), gold + biocide [17]: 1.11
- CDI (coefficient of drug interaction), gold + biocide [18]: 0.95
- CDI (coefficient of drug interaction), gold + biocide [19]: Tox
- CDI (coefficient of drug interaction), gold + biocide [20]: 0.98
- CDI (coefficient of drug interaction), gold + biocide [21]: 0.85
- CDI (coefficient of drug interaction), gold + biocide [22]: 0.96
- CDI (coefficient of drug interaction), gold + biocide [23]: Tox
- CDI [24]: 0.90
- CDI [25]: 1.06
- CDI [26]: 0.73
- CDI [27]: Tox
- CDI [44]: 0.88
- CDI [28]: 0.93
- CDI [29]: 0.99
- CDI [30]: Tox
- CDI [31]: 0.88
- CDI [32]: 0.92
- CDI [34]: Tox

Compound: spiramycin
- CDI (coefficient of drug interaction) [1]: 1.00
- CDI (coefficient of drug interaction) [3]: 0.94
- CDI (coefficient of drug interaction) [4]: Tox
- CDI (coefficient of drug interaction) [5]: 0.89
- CDI (coefficient of drug interaction) [6]: Tox
- CDI (coefficient of drug interaction) [7]: Tox
- CDI (coefficient of drug interaction) [8]: Tox
- CDI (coefficient of drug interaction) [9]: 0.92
- CDI (coefficient of drug interaction) [10]: 0.91
- CDI (coefficient of drug interaction) [11]: 3.40
- CDI (coefficient of drug interaction) [12]: Tox
- CDI (coefficient of drug interaction) (Gold section of Table 5, first of three gold concentrations (μM, value not given), biocide concentration 1 of 4): 1.03
- CDI (coefficient of drug interaction) [35]: 1.00
- CDI (coefficient of drug interaction) [36]: Tox
- CDI (coefficient of drug interaction) [37]: Tox
- CDI (coefficient of drug interaction) [38]: 0.67
- CDI (coefficient of drug interaction) [39]: Tox
- CDI (coefficient of drug interaction) [40]: Tox
- CDI (coefficient of drug interaction) (Gold section of Table 5, third of three gold concentrations (μM, value not given), biocide concentration 1 of 4): 0.84
- CDI (coefficient of drug interaction) [41]: 0.33
- CDI (coefficient of drug interaction) [42]: Tox
- CDI (coefficient of drug interaction) [43]: Tox
- CDI [24]: 0.83
- CDI [25]: Tox
- CDI [26]: Tox
- CDI [27]: Tox
- CDI [44]: 0.96
- CDI [28]: Tox
- CDI [29]: Tox
- CDI [30]: Tox
- CDI [31]: 0.83
- CDI [32]: Tox
- CDI [33]: Tox
- CDI [34]: Tox
